In ChEMBL document CHEMBL2010693, “Scaffold hybridization in generation of indenoindolones as anticancer agents that induce apoptosis with cell cycle arrest at G2/M phase” (Bioorg Med Chem Lett, 2012):
Activity calls are given as the source filed them. No cut-off for these calls is given here.

Assays:
HEK293 [1] = experiment: Cytotoxicity against human HEK293 cells after 48 hrs by MTT assay; format: functional; settings: HEK293, 48 h, read-out: LC50 (the source's name)
[2] = Cytotoxicity against african green monkey Vero cells after 48 hrs by MTT assay; format: cell-based; settings: chlorocebus sabaeus, read-out: LC50
HEK293 [3] = experiment: Induction of apoptosis in human HEK293 cells assessed as increase in caspase-3 expression after 48 hrs by immunohistochemistry analysis; format: functional, cell-based
HEK293 [4] = experiment: Induction of apoptosis in human HEK293 cells assessed as increase in Bax expression after 48 hrs by Western blot analysis; format: functional, cell-based
HEK293 [5] = experiment: Induction of apoptosis in human HEK293 cells assessed as increase in caspase-3 cleavage after 48 hrs by Western blot analysis; format: functional, cell-based
HEK293 [6] = experiment: Cell cycle arrest in human HEK293 cells assessed as accumulation at G0 phase at LC50 after 48 hrs by propidium iodide staining based FACS analysis (reference value: 3.5 %); format: functional
HEK293 [7] = experiment: Induction of apoptosis in human HEK293 cells assessed as punchate nuclei at LC50 after 48 hrs using DAPI staining method; format: functional, cell-based
HEK293 [8] = experiment: Induction of apoptosis in human HEK293 cells assessed as bubble shape nuclei at LC50 after 48 hrs using DAPI staining method; format: functional, cell-based
HEK293 [9] = experiment: Induction of apoptosis in human HEK293 cells assessed as increase in induction of PARP cleavage after 48 hrs by Western blot analysis; format: functional, cell-based
HEK293 [10] = experiment: Cell cycle arrest in human HEK293 cells assessed as accumulation at G2/M phase at LC50 after 48 hrs by propidium iodide staining based FACS analysis (reference value: 2.76 %); format: functional
[11] = Cytotoxicity against african green monkey Vero cells after 24 hrs by MTT assay; format: cell-based; settings: chlorocebus sabaeus, read-out: LC50
HEK293 [12] = experiment: Cell cycle arrest in human HEK293 cells assessed as accumulation at G1 phase at LC50 after 48 hrs by propidium iodide staining based FACS analysis (reference value: 53.56 %); format: functional
HEK293 [13] = experiment: Cell cycle arrest in human HEK293 cells assessed as accumulation at S phase at LC50 after 48 hrs by propidium iodide staining based FACS analysis (reference value: 18.92 %); format: functional
HEK293 [14] = experiment: Induction of apoptosis in human HEK293 cells assessed as shrinkage of nuclei at LC50 after 48 hrs using DAPI staining method; format: functional, cell-based
HEK293 [15] = experiment: Cytotoxicity against human HEK293 cells after 72 hrs by MTT assay; format: functional; settings: HEK293, 72 h, read-out: LC50 (the source's name)
HEK293 [16] = experiment: Induction of apoptosis in human HEK293 cells assessed as reduction of Bcl-xL level after 48 hrs by Western blot analysis; format: functional, cell-based
[17] = Cytotoxicity against african green monkey Vero cells after 72 hrs by MTT assay; format: cell-based; settings: chlorocebus sabaeus, read-out: LC50
HEK293 [18] = experiment: Cytotoxicity against human HEK293 cells after 24 hrs by MTT assay; format: functional; settings: HEK293, 24 h, read-out: LC50 (the source's name)

SMILES: O=c1[nH]cc(F)c(=O)[nH]1 [FLUOROURACIL]
- CC50 (HEK293 [1]): 25 µM

SMILES: COc1cc([C@@H]2c3cc4c(cc3[C@@H](O[C@@H]3O[C@@H]5CO[C@@H](C)O[C@H]5[C@H](O)[C@H]3O)[C@H]3COC(=O)[C@H]23)OCO4)cc(OC)c1O [ETOPOSIDE]
- CC50 at 48 h [2]: 18 µM
- CC50 (HEK293 [1]): 28 µM

SMILES: COc1cc2c(cc1OC)-c1[nH]c3ccccc3c1C2=O
- Activity (HEK293 [3]): Active
- Activity (HEK293 [4]): Active
- Activity (HEK293 [5]): Active
- Activity (HEK293 [6]): 0.03%
- CC50 at 48 h [2]: 54 µM
- Activity (HEK293 [7]): Active
- Activity (HEK293 [8]): Active
- Activity (HEK293 [9]): Active
- Activity (HEK293 [10]): 73.31%
- CC50 at 24 h [11]: 47 µM
- Activity (HEK293 [12]): 3.43%
- Activity (HEK293 [13]): 23.95%
- Activity (HEK293 [14]): Active
- CC50 (HEK293 [15]): 12 µM
- Activity (HEK293 [16]): Active
- CC50 (HEK293 [1]): 15 µM
- CC50 at 72 h [17]: 55 µM
- CC50 (HEK293 [18]): 16 µM

SMILES: O=C1c2cc(F)ccc2-c2[nH]c3ccccc3c21
- Activity (HEK293 [3]): Active
- Activity (HEK293 [4]): Active
- Activity (HEK293 [5]): Active
- Activity (HEK293 [6]): 0.46%
- CC50 at 48 h [2]: > 100 µM
- Activity (HEK293 [7]): Active
- Activity (HEK293 [8]): Active
- Activity (HEK293 [9]): Active
- Activity (HEK293 [10]): 38.9%
- CC50 at 24 h [11]: > 100 µM
- Activity (HEK293 [12]): 37.31%
- Activity (HEK293 [13]): 23.79%
- Activity (HEK293 [14]): Active
- CC50 (HEK293 [15]): 15 µM
- Activity (HEK293 [16]): Active
- CC50 (HEK293 [1]): 22 µM
- CC50 at 72 h [17]: 65 µM
- CC50 (HEK293 [18]): 18 µM

SMILES: COc1cc2c(c(OC)c1OC)-c1c(c3ccccc3n1C)C2=O
- Activity (HEK293 [3]): Active
- Activity (HEK293 [4]): Active
- Activity (HEK293 [5]): Active
- Activity (HEK293 [6]): 0.23%
- CC50 at 48 h [2]: 39 µM
- Activity (HEK293 [7]): Active
- Activity (HEK293 [8]): Active
- Activity (HEK293 [9]): Active
- Activity (HEK293 [10]): 57.56%
- CC50 at 24 h [11]: 42 µM
- Activity (HEK293 [12]): 22.98%
- Activity (HEK293 [13]): 19.52%
- Activity (HEK293 [14]): Active
- CC50 (HEK293 [15]): 16 µM
- Activity (HEK293 [16]): Active
- CC50 (HEK293 [1]): 17 µM
- CC50 at 72 h [17]: 35 µM
- CC50 (HEK293 [18]): 39 µM

SMILES: O=C1c2ccccc2-c2[nH]c3ccccc3c21
- Activity (HEK293 [3]): Active
- Activity (HEK293 [4]): Active
- Activity (HEK293 [5]): Active
- Activity (HEK293 [6]): 0.05%
- CC50 at 48 h [2]: 48 µM
- Activity (HEK293 [7]): Active
- Activity (HEK293 [8]): Active
- Activity (HEK293 [9]): Active
- Activity (HEK293 [10]): 76.44%
- CC50 at 24 h [11]: 56 µM
- Activity (HEK293 [12]): 6.29%
- Activity (HEK293 [13]): 17.35%
- Activity (HEK293 [14]): Active
- CC50 (HEK293 [15]): 14 µM
- Activity (HEK293 [16]): Active
- CC50 (HEK293 [1]): 15 µM
- CC50 at 72 h [17]: 40 µM
- CC50 (HEK293 [18]): 50 µM

SMILES: O=C1c2ccccc2-c2c1c1ccccc1n2Cc1ccccc1
- Activity (HEK293 [3]): Active
- Activity (HEK293 [4]): Active
- Activity (HEK293 [5]): Active
- Activity (HEK293 [6]): 0.44%
- CC50 at 48 h [2]: 53 µM
- Activity (HEK293 [7]): Active
- Activity (HEK293 [8]): Active
- Activity (HEK293 [9]): Active
- Activity (HEK293 [10]): 38.7%
- CC50 at 24 h [11]: 57 µM
- Activity (HEK293 [12]): 41.21%
- Activity (HEK293 [13]): 20.19%
- Activity (HEK293 [14]): Active
- CC50 (HEK293 [15]): 16 µM
- Activity (HEK293 [16]): Active
- CC50 (HEK293 [1]): 17 µM
- CC50 at 72 h [17]: 45 µM
- CC50 (HEK293 [18]): 50 µM
